Values joined by “and” are separate entries in the source; they are usually repeats but may differ in a detail not shown here. Equal entries are not always repeated.
System: 857933-349-R-J2-PDC complex spheroids, viability
Experiment: Anticancer human tumor 857933-349-R-J2-PDC patient-derived colon adenocarcinoma cell line growth inhibition [GQUAD]
Settings: for viability, T/C: stronger effect = lower value; active = viability on the fitted dose curve at most 10% of control; inactive = the rest
From the text: DNA G-quadruplex Stabilizer Agents in Combinations in Complex Spheroids
A high-throughput screen of multi-cell type tumor spheroids was designed to identify active combinations of DNA G-quadruplex stabilizer agents and targeted small molecules. Complex spheroids include a stromal component modeled by human endothelial cells (HUVEC) and fibroblasts modeled by human mesenchymal stem cells (MSCs). The concentration ranges selected for each drug and investigational agent were based upon clinically achievable concentrations if the clinical Cmax of the agent was known.
Compounds. The drugs and investigational agents: pidnarulex (CX-5461; NSC782164), APTO-253 (NSC789042), BRACO-19 (NSC847499), peposertib (NSC802822), ceralasertib (NSC780249), elimusertib (NSC800525), camonsertib (NSC841442), AZD-1390 (NSC803789), olaparib (NSC753686), talazoparib (NSC767125), ART-558 (NSC835418), sotorasib (NSC818433), MRTX-1133 (NSC836407), SN-38 (NSC673596), topotecan (NSC609699), etoposide (NSC141540), doxorubicin (NSC123127), gemcitabine (NSC613327), 5-fluorouracil (NSC19893), paclitaxel (NSC125973), vemurafenib (NSC761431), panobinostat (NSC761190), R-306465 (JNJ-16241199; NSC773264), adavosertib (NSC754352), TP-3654 (NSC805149), carboplatin (NSC241240), KSQ-4279 (NSC840948), and staurosporine (NSC755774) were obtained from the National Cancer Institute (NCI) Developmental Therapeutics Program Chemical Repository (34). The FDA-approved anticancer drug set is available from the NCI Developmental Therapeutics Program. […] The stock solutions were prepared in dimethyl sulfoxide (DMSO, Sigma-Aldrich, St. Louis, MO, cat. D2650) at 800-fold the tested concentration and stored at -70 degrees C prior to their use. All drugs and investigational agents were tested over a range starting from a high concentration at or near the clinical Cmax and decreasing in half-log increments. If the clinical Cmax for an agent had not been determined, the highest concentration tested was 10 microM.
2.3 Cell Culture. All cells were maintained in an incubator at 37 degrees C and 5% CO2 with 95% humidity. The PDC lines were cultured according to standard operating procedures established by the NCI PDMR. All PDCs were thawed and cultured in Matrigel-coated flasks prepared with a working solution of 1X Ham's F-12 nutrient mix, without supplementation (Invitrogen, cat. 11765054), 100 U/mL penicillin-streptomycin (Invitrogen, cat. 15140122), and 2.5% Matrigel (Corning Inc., cat. 354248) for the first three passages. The 857933-349-R-J2-PDC line was cultured in 6C/Colon 1B media, which includes advanced DMEM/F-12 (Thermo Fisher Scientific, cat. 12634028), 10 mM HEPES (Thermo Fisher Scientific, cat. 15630080), 1X GlutaMAX supplement (Thermo Fisher Scientific, cat. 35050061), 0.1 mg/mL primocin (InvivoGen, cat. ant-pm-2), 10% defined fetal bovine serum, heat inactivated (HyClone Laboratories Inc., cat. SH30070.03HI), 50% L-WRN conditioned media (ATCC, cat. CRL-3276), 1.25 mM N-Acetyl-L-cysteine (Sigma-Aldrich, cat. A9165), 10 mM nicotinamide (Sigma-Aldrich, cat. N0636), 1X B-27 supplement (Thermo Fisher Scientific, cat. 17504044), 1X N-2 supplement (Thermo Fisher Scientific, cat. 17502048), 10 microM Y-27632 dihydrochloride (Tocris Bioscience, cat. 1254), and 50 ng/mL human EGF recombinant protein (Thermo Fisher Scientific, cat. PHG0311). The 485176-168-R4-J1-PDC line was cultured in Panc media, which includes all 6C/Colon 1B media components plus 100 ng/mL human FGF-10 (Thermo Fisher Scientific, cat. 100-26), 500 nM SB-431542 (Selleckchem, cat. S1067), and gastrin (Tocris, cat. 3006).
[…]

[1] = curve of first compound, second compound 0.0316 µM
[2] = curve of first compound, second compound 0.1 µM
[3] = curve of first compound, second compound 0.316 µM
[4] = curve of first compound, second compound 1 µM
[5] = curve of first compound, second compound 3.16 µM
[6] = curve of first compound, second compound 10 µM
[7] = second compound 0.0316 µM, first compound 0.0316 µM
[8] = second compound 0.0316 µM, first compound 0.1 µM
[9] = second compound 0.0316 µM, first compound 0.316 µM
[10] = second compound 0.0316 µM, first compound 1 µM
[11] = second compound 0.0316 µM, first compound 3.16 µM
[12] = second compound 0.0316 µM, first compound 10 µM
[13] = second compound 0.1 µM, first compound 0.0316 µM
[14] = second compound 0.1 µM, first compound 0.1 µM
[15] = second compound 0.1 µM, first compound 0.316 µM
[16] = second compound 0.1 µM, first compound 1 µM
[17] = second compound 0.1 µM, first compound 3.16 µM
[18] = second compound 0.1 µM, first compound 10 µM
[19] = second compound 0.316 µM, first compound 0.0316 µM
[20] = second compound 0.316 µM, first compound 0.1 µM
[21] = second compound 0.316 µM, first compound 0.316 µM
[22] = second compound 0.316 µM, first compound 1 µM
[23] = second compound 0.316 µM, first compound 3.16 µM
[24] = second compound 0.316 µM, first compound 10 µM
[25] = second compound 1 µM, first compound 0.0316 µM
[26] = second compound 1 µM, first compound 0.1 µM
[27] = second compound 1 µM, first compound 0.316 µM
[28] = second compound 1 µM, first compound 1 µM
[29] = second compound 1 µM, first compound 3.16 µM
[30] = second compound 1 µM, first compound 10 µM
[31] = second compound 3.16 µM, first compound 0.0316 µM
[32] = second compound 3.16 µM, first compound 0.1 µM
[33] = second compound 3.16 µM, first compound 0.316 µM
[34] = second compound 3.16 µM, first compound 1 µM
[35] = second compound 3.16 µM, first compound 3.16 µM
[36] = second compound 3.16 µM, first compound 10 µM
[37] = second compound 10 µM, first compound 0.0316 µM
[38] = second compound 10 µM, first compound 0.1 µM
[39] = second compound 10 µM, first compound 0.316 µM
[40] = second compound 10 µM, first compound 1 µM
[41] = second compound 10 µM, first compound 3.16 µM
[42] = second compound 10 µM, first compound 10 µM
[43] = compound alone, run of 02/26/2024
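Note: spheroids exposed to compounds for one week before readout.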
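Throughout, for viability, T/C: percent viability relative to vehicle DMSO wells taken as 100%.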

Nc1ccn(C2OC(CO)C(O)C2(F)F)c(=O)n1 (stereo not given) + Cc1[nH]c2ccc(F)cc2c1-c1nc2c3cccnc3c3ncccc3c2[nH]1
169 nM: IC50 [4]
255 nM: IC50 [6]
270 nM: IC50 [5]
inactive: viability, T/C [7] 73.6% | viability, T/C [8] 50.7% | viability, T/C [9] 53% | viability, T/C [10] 12.2% | viability, T/C [13] 81.9% | viability, T/C [14] 55.6% | viability, T/C [15] 40.1% | viability, T/C [16] 13.4% | viability, T/C [19] 71.9% | viability, T/C [20] 54.7% | viability, T/C [21] 53.2% | viability, T/C [22] 12% | viability, T/C [25] 76.5% | viability, T/C [26] 54.2% | viability, T/C [27] 45.2% | viability, T/C [28] 10.6% | viability, T/C [31] 74.5% | viability, T/C [32] 53.2% | viability, T/C [33] 50.2% | viability, T/C [34] 11.6% | viability, T/C [37] 73% | viability, T/C [38] 47.9% | viability, T/C [39] 48.8% | viability, T/C [40] 10.1%
active: viability, T/C [11] 8.63% | viability, T/C [12] 7.04% | viability, T/C [17] 8.84% | viability, T/C [18] 6.64% | viability, T/C [23] 7.77% | viability, T/C [24] 6.81% | viability, T/C [29] 8.22% | viability, T/C [30] 6.71% | viability, T/C [35] 8.23% | viability, T/C [36] 7.07% | viability, T/C [41] 7.69% | viability, T/C [42] 8.66%
337 nM: IC50 [1]
153 nM: IC50 [2]
339 nM: IC50 [3]

O=C(NO)c1cnc(N2CCN(S(=O)(=O)c3ccc4ccccc4c3)CC2)nc1 + CN(C)c1ccc(Nc2c3ccc(NC(=O)CCN4CCCC4)cc3nc3cc(NC(=O)CCN4CCCC4)ccc23)cc1
1480 nM: IC50 [1]
1510 nM: IC50 [2]
1230 nM: IC50 [4]
active: viability, T/C [11] 0.74% | viability, T/C [12] 0.27% | viability, T/C [17] 0.65% | viability, T/C [18] 0.57% | viability, T/C [23] 1.11% | viability, T/C [24] 0.38% | viability, T/C [29] 0.83% | viability, T/C [30] 0.36% | viability, T/C [35] 1% | viability, T/C [36] 0.3% | viability, T/C [41] 0.55% | viability, T/C [42] 0.71%
658 nM: IC50 [6]
inactive: viability, T/C [7] 106% | viability, T/C [8] 100% | viability, T/C [9] 101% | viability, T/C [10] 75.1% | viability, T/C [13] 101% | viability, T/C [14] 99.3% | viability, T/C [15] 93.8% | viability, T/C [16] 77.1% | viability, T/C [19] 101% | viability, T/C [20] 100% | viability, T/C [21] 93% | viability, T/C [22] 64.9% | viability, T/C [25] 97.2% | viability, T/C [26] 97% | viability, T/C [27] 92.9% | viability, T/C [28] 60.7% | viability, T/C [31] 89% | viability, T/C [32] 80.1% | viability, T/C [33] 92.4% | viability, T/C [34] 55.7% | viability, T/C [37] 66.2% | viability, T/C [38] 68.2% | viability, T/C [39] 68.5% | viability, T/C [40] 40%
1130 nM: IC50 [5]
1310 nM: IC50 [3]

Cc1[nH]c2ccc(F)cc2c1-c1nc2c3cccnc3c3ncccc3c2[nH]1
> 10000 nM: IC50 (compound alone, run of 02/20/2024) | IC50 [43]
inactive: viability, T/C (compound 0.0316 µM) 106% [middle of 12 runs] | viability, T/C (compound 0.1 µM) 107% [middle of 12 runs] | viability, T/C (compound 0.316 µM) 103% [middle of 12 runs] | viability, T/C (compound 1 µM) 104% [middle of 12 runs] | viability, T/C (compound 3.16 µM) 92.1% [middle of 12 runs] | viability, T/C (compound 10 µM) 95.5% [middle of 12 runs]

CCc1c2c(nc3ccc(O)cc13)-c1cc3c(c(=O)n1C2)COC(=O)[C@]3(O)CC
11.9% and 6.62% and 10.2%: viability, T/C (compound 0.316 µM)
5.62 nM and 16 nM and 4.84 nM: IC50 (curve of compound)
inactive: viability, T/C (compound 0.000999 µM) 85.5% and 93.5% and 77.5% | viability, T/C (compound 0.00316 µM) 48.9% and 84.5% and 50.1% | viability, T/C (compound 0.00999 µM) 50% and 57.4% and 48.4% | viability, T/C (compound 0.0316 µM) 28% and 35.3% and 21.5% | viability, T/C (compound 0.0999 µM) 15.3% and 20.7% and 13%

C=CC(=O)N1CCN(c2nc(=O)n(-c3c(C)ccnc3C(C)C)c3nc(-c4c(O)cccc4F)c(F)cc23)C(C)C1 (stereo not given)
inactive: viability, T/C (compound 0.0316 µM) 106% and 112% and 111% | viability, T/C (compound 0.1 µM) 94.1% and 102% and 90.6% | viability, T/C (compound 0.316 µM) 100% and 107% and 103% | viability, T/C (compound 1 µM) 102% and 110% and 106% | viability, T/C (compound 3.16 µM) 107% (2×) and 108% | viability, T/C (compound 10 µM) 90.5% and 111% and 101%
> 10000 nM: IC50 (curve of compound)

CN(C)c1ccc(Nc2c3ccc(NC(=O)CCN4CCCC4)cc3nc3cc(NC(=O)CCN4CCCC4)ccc23)cc1
> 10000 nM: IC50 [43]
inactive: viability, T/C (compound 0.0316 µM) 104% [middle of 12 runs] | viability, T/C (compound 0.1 µM) 105% [middle of 12 runs] | viability, T/C (compound 0.316 µM) 106% [middle of 12 runs] | viability, T/C (compound 1 µM) 103% [middle of 12 runs] | viability, T/C (compound 3.16 µM) 88.4% [middle of 12 runs] | viability, T/C (compound 10 µM) 74.7% [middle of 12 runs]

COc1ncnc(C2CC2)c1-c1ncc2cnn(Cc3ccc(-c4nc(C(F)(F)F)cn4C(C)C)cc3)c2n1
> 10000 nM: IC50 (curve of compound)
inactive: viability, T/C (compound 0.0316 µM) 101% and 105% and 104% | viability, T/C (compound 0.1 µM) 92.3% and 102% and 96% | viability, T/C (compound 0.316 µM) 101% and 105% and 104% | viability, T/C (compound 1 µM) 93.7% and 103% and 102% | viability, T/C (compound 3.16 µM) 104% and 99.2% and 97.6% | viability, T/C (compound 10 µM) 102% and 105% and 103%
